Measurements from patent US12661384B2, “Methods for inducing cell division of postmitotic cells” (priority 2015, dated 2026).

Tested on: Human embryonic stem cell-derived cardiomyocytes
Test: Screen of factor cocktails: PHH3 staining and total nuclei
Type: cell-based
Method: To determine an optimal cocktail of factors for inducing cell proliferation and/or cell cycle reentry of human postmitotic cardiomyocytes, combinations of factors were screened. […] Cells were treated with combinations of CDK1AF, CDK4, CCNB1, CCND1, AURKB or GFP control adenovirus, with or without combinations of TGF-βi (SB431542, “SB”), a […] (MK1775, “MK”), and IGF1. Analysis was performed to identify cocktails of factors that increased the number of cells undergoing mitosis as assessed by increased phospho-histone H3 staining at 4-, 8-, and 12-days after treatment with factor cocktails. FIG. 10, panel A. Analysis was also performed to identify which cocktails of factors had the highest cell survival as assessed by the increase in total number of nuclei. FIG. 10, panel B.

Structure (SMILES)	replacement of factors in the cocktail (activation of CDK1 with small molecule)	cell survival (total number of nuclei) (4, 8 and 12 days after treatment)
C=CCn1c(=O)c2cnc(Nc3ccc(N4CCN(C)CC4)cc3)nc2n1-c1cccc(C(C)(C)O)n1 [MK1775]	could replace CDK1 and CCNB1 from the cocktail	
NC(=O)c1ccc(-c2nc(-c3ccc4c(c3)OCO4)c(-c3ccccn3)[nH]2)cc1 [SB431542]		enhanced survival
